ChEMBL document CHEMBL1130631, “Synthesis of benzo[c]quinolizin-3-ones: selective non-steroidal inhibitors of steroid 5 alpha-reductase 1” (Bioorg Med Chem Lett, 1998)
Values belong to the compound of their own block, whether it stands above or below them.

Key:
[1] = molecular target: T1, 3-oxo-5-alpha-steroid 4-dehydrogenase 1 (Homo sapiens, UniProt P18405); test: Compound was evaluated for the inhibition of human Steroid 5-alpha-reductase type 1 from recombinant CHO cells; assay type: cell-based
T1 sequence (P18405 whole entry): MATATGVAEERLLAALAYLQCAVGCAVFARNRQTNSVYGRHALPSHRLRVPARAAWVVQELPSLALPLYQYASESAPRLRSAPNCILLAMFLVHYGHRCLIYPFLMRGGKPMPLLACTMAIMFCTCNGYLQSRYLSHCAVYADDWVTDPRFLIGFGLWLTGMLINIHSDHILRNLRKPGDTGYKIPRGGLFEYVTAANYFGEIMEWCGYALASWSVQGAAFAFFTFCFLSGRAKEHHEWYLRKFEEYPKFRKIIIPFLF

[2] = molecular target: T2, 3-oxo-5-alpha-steroid 4-dehydrogenase 2 (Homo sapiens, UniProt P31213); test: Compound was evaluated for the inhibition of human Steroid 5-alpha-reductase type 2 from human prostate homogenates.; No inhibition; assay type: tissue-based, Prostate gland
T2 sequence (P31213 whole entry): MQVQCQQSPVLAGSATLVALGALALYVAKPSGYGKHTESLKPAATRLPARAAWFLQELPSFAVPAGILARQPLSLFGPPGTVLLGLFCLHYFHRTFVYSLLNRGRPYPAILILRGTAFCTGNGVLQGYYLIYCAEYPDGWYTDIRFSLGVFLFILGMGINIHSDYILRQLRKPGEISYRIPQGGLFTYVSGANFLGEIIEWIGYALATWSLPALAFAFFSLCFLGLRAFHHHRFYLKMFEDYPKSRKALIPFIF

[3] = molecular target: T1, 3-oxo-5-alpha-steroid 4-dehydrogenase 1; test: Compound was evaluated for the inhibition of human Steroid 5-alpha-reductase type 1
[4] = molecular target: T2, 3-oxo-5-alpha-steroid 4-dehydrogenase 2; test: Compound was evaluated for the inhibition of human Steroid 5-alpha-reductase type 2
[5] = molecular target: T2, 3-oxo-5-alpha-steroid 4-dehydrogenase 2; test: Compound was evaluated for the inhibition of human Steroid 5-alpha-reductase type 2 receptor from human prostate homogenates.; assay type: tissue-based, Prostate gland
[6] = molecular target: T1, 3-oxo-5-alpha-steroid 4-dehydrogenase 1; test: Compound was evaluated for the inhibition of human Steroid 5-alpha-reductase type 1
[7] = molecular target: T2, 3-oxo-5-alpha-steroid 4-dehydrogenase 2; test: Compound was evaluated for the inhibition of human Steroid 5-alpha-reductase type 2 receptor from human prostate homogenates; assay type: tissue-based, Prostate gland
[8] = molecular target: T2, 3-oxo-5-alpha-steroid 4-dehydrogenase 2; test: Compound was evaluated for the inhibition of human Steroid 5-alpha-reductase type 2 from human prostate homogenates; No inhibition; assay type: tissue-based, Prostate gland

IC50 [1]: 298 nM
IC50 [2]: Not Active
SMILES: O=C1C=C2CCc3ccccc3N2CC1

Ki [3]: 9 nM
Ki [4]: > 1000 nM
SMILES: CN1C(=O)CC[C@]2(C)c3ccc(Cl)cc3CCC12 (stereo not given in full)

IC50 [5]: 122 nM
IC50 [6]: 127 nM
SMILES: CC(C)(C)NC(=O)[C@@H]1CCC2C3CCC4=CC(=O)CCN4C3=CC[C@@]21C (stereo not given in full)

SMILES: CC(C)(C)NC(=O)[C@H]1CC[C@H]2[C@@H]3CC[C@H]4NC(=O)C=C[C@]4(C)[C@H]3CC[C@]12C [FINASTERIDE]
IC50 [7]: 1.2 nM
IC50 [1]: 911 nM

IC50 [8]: Not Active
IC50 [1]: 5130 nM
SMILES: O=C1C=CN2c3ccccc3CCC2C1 (stereo not given)
